Laboratory results taken from ChEMBL document CHEMBL1201862, “PubChem BioAssay data set” (2004).
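All cell lines were grown in 96-well plates and treated with compound for 48 hours. GI50 = concentration required for 50% inhibition of growth.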 Active and inactive are the calls of the source. Rule as the data show it: active = GI50 up to about 1.1 µM and inactive = higher.

Legend:
Experiment in all cases: inhibition of tumour cell growth, NCI panel, 48 h
[1] = tested on: SK-MEL-5
[2] = tested on: Hs-578T
[3] = tested on: RPMI-8226
[4] = tested on: NCI-H23
[5] = tested on: UO-31
[6] = tested on: HOP-92
[7] = tested on: LOX IMVI
[8] = tested on: T47D
[9] = tested on: HT-29
[10] = tested on: KM12
[11] = tested on: NCI-H522
[12] = tested on: HOP-62
[13] = tested on: NCI/ADR-RES
[14] = tested on: ACHN
[15] = tested on: PC-3
[16] = tested on: SW-620
[17] = tested on: M14
[18] = tested on: MDA-N

Measured: GI50

CCOC(=O)c1c(C)n(-c2ccc(C)cc2)c(=O)c2ccccc2c(=O)c2c(=O)ccc(=O)c1=2
inactive: [1] 14.7 µM | [2] 21.3 µM | [3] 4.7 µM | [4] 15.5 µM | [5] 23.4 µM | [6] 16.2 µM | [7] 14.7 µM | [8] 20 µM | [9] 12.2 µM | [10] 13.6 µM | [11] 18.3 µM | [12] 18.8 µM | [13] 18.5 µM | [14] 13.4 µM | [15] 17.1 µM | [16] 25.6 µM | [17] 20.4 µM

CC12c3c4cc(Br)cc3Oc3cc(Br)cc(c31)Oc1cc(Br)cc(c12)O4
inactive: [1] 27.6 µM | [2] > 100 µM | [3] 19.4 µM | [4] 57.1 µM | [5] 52 µM | [18] 41.1 µM | [7] 24.9 µM | [8] 28.1 µM | [9] 76.9 µM | [10] 58.5 µM | [12] 60.4 µM | [13] 19.8 µM | [14] 51.9 µM | [15] 21 µM | [16] 24.6 µM | [17] 35.4 µM

c1ccc(C2=NCCc3cc4c(cc32)OCO4)cc1
inactive: [1] > 100 µM | [2] > 100 µM | [4] > 100 µM | [18] > 100 µM | [7] > 100 µM | [8] > 100 µM | [10] > 100 µM | [11] > 100 µM | [12] > 100 µM | [13] > 100 µM | [15] > 100 µM | [16] > 100 µM | [17] > 100 µM

CC(C)=CCC/C(C)=C/CC/C(C)=C/[C@@H]1[C@@H](CO)[C@]1(C)CC/C=C(\C)CCC=C(C)C
inactive: [1] 46 µM | [2] > 100 µM | [3] 25.2 µM | [4] 32 µM | [5] 18.6 µM | [6] 16.6 µM | [7] 11.5 µM | [8] 41.3 µM | [9] 42.8 µM | [10] 35.7 µM | [11] 17.1 µM | [12] 69.7 µM | [13] 22.4 µM | [14] 17.2 µM | [15] 23.9 µM | [16] 22.6 µM | [17] 91.4 µM

COc1ccc(COCC[C@H](C)OC2OC(CO[Si](C)(C)C(C)(C)C)C(OC(=O)CCCN=[N+]=[N-])C(OC(=O)CCCN=[N+]=[N-])C2OC(=O)CCCN=[N+]=[N-])cc1 (stereo partly drawn)
inactive: [1] 9.64 µM | [2] > 100 µM | [4] 31.8 µM | [5] 19.9 µM | [6] > 100 µM | [18] 44.9 µM | [7] 25.2 µM | [8] 31 µM | [9] 22.3 µM | [10] 88.1 µM | [11] 18.7 µM | [12] 97.5 µM | [13] 19.1 µM | [15] 28.6 µM | [16] > 100 µM | [17] 68.5 µM

CCOC(=O)c1c(N)sc2c1C(C(=O)OCC)CCC2 (stereo not drawn)
inactive: [1] 98.2 µM | [2] > 100 µM | [3] > 100 µM | [4] > 100 µM | [5] 47.4 µM | [6] > 100 µM | [18] > 100 µM | [8] 66.5 µM | [9] > 100 µM | [10] > 100 µM | [12] > 100 µM | [14] > 100 µM | [15] 68.1 µM | [16] > 100 µM | [17] > 100 µM

CC1(C)CC(=O)C(=CNC(=S)c2ccccc2)C(=O)C1
inactive: [1] > 100 µM | [2] > 100 µM | [4] > 100 µM | [5] > 100 µM | [6] > 100 µM | [18] > 100 µM | [7] > 100 µM | [9] > 100 µM | [10] > 100 µM | [11] > 100 µM | [12] > 100 µM | [13] > 100 µM | [14] > 100 µM | [15] > 100 µM | [16] > 100 µM | [17] > 100 µM

C=CC(Br)(CBr)CCC1OC1(C)C (stereo not drawn)
inactive: [1] 14.2 µM | [2] 15 µM | [3] 20.4 µM | [4] 16.3 µM | [5] 18.2 µM | [6] 14.4 µM | [18] 11.3 µM | [7] 5.47 µM | [9] 17.4 µM | [10] 17.1 µM | [11] 17.2 µM | [12] 18.9 µM | [13] 23.5 µM | [14] 18.2 µM | [15] 16.5 µM | [16] 13.1 µM | [17] 13.9 µM

O=C(c1cccs1)N(C(=O)N1CCN(c2ccccc2)CC1)S(=O)(=O)c1ccccc1
inactive: [1] 17 µM | [2] 23.8 µM | [4] 24 µM | [5] 18.5 µM | [6] 22.9 µM | [18] 19.3 µM | [8] 12.7 µM | [9] 30.5 µM | [10] 31.4 µM | [11] 15.6 µM | [12] 29.6 µM | [13] 24 µM | [14] 19.3 µM | [15] 29 µM | [16] 31.5 µM | [17] 17.7 µM

COc1ccc(C(=CCC(C)C2CCC3[C@@H]4C(OC(C)=O)CC5CC(OC(C)=O)CC[C@]5(C)C4CC(OC(C)=O)[C@]23C)c2ccc(OC)cc2)cc1 (stereo partly drawn)
inactive: [1] > 100 µM | [2] > 100 µM | [3] 29.2 µM | [5] 47.4 µM | [8] 41 µM | [9] > 100 µM | [10] 76.6 µM | [11] 23.8 µM | [12] > 100 µM | [13] 80.7 µM | [14] 37.3 µM | [15] 19.5 µM | [16] 91.4 µM | [17] 19.1 µM

COC(=NC(C)C)NC(C)C
inactive: [1] > 100 µM | [2] > 100 µM | [3] > 100 µM | [4] > 100 µM | [5] > 100 µM | [6] > 100 µM | [18] > 100 µM | [7] > 100 µM | [8] > 100 µM | [12] > 100 µM | [13] > 100 µM | [14] > 100 µM | [15] > 100 µM | [16] > 100 µM | [17] > 100 µM

N=c1c2ccccc2nc2oc3ccc(Cl)cc3n12
inactive: [1] 37.8 µM | [2] 2.28 µM | [3] 4.4 µM | [4] 14.1 µM | [5] 16.4 µM | [18] 65.6 µM | [7] 3.21 µM | [9] 20.3 µM | [10] > 100 µM | [11] 17.3 µM | [12] 5.81 µM | [13] 48.3 µM | [14] 11.5 µM | [15] 33.1 µM | [16] 5.62 µM | [17] 9.4 µM
